Results reported in patent US20240270741A1 (Cogent Biosciences, Inc., priority 2023, published 2024).
Where a name gives a salt, the structure may show the parent alone.

Target: FGFR2 (Homo sapiens, UniProt P21802)
Test: FGFR wild type enzyme assay (HTRF KinEASE-TK), FGFR2
Conditions: Enz FGFR2 (nM)

FGFR2, sequence (P21802 399-821 limits assumed): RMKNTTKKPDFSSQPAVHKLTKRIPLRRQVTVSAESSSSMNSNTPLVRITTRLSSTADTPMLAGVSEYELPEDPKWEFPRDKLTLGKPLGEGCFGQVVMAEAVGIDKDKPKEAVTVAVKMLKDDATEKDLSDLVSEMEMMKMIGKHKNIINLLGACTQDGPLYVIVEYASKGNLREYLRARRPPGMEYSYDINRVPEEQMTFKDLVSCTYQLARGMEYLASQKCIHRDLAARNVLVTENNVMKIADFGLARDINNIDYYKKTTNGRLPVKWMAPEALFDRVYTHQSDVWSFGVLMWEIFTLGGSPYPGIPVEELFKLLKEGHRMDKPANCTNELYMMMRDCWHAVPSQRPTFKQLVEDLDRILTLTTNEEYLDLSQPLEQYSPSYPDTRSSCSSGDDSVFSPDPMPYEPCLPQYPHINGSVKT

Structure (SMILES)	IC50
CSc1cc(-c2cnn([C@H]3CCCNC3)c2)cn2ncc(C#N)c12 [Example 50, 4-methylsulfanyl-6-[1-[(3S)-3-piperidyl]pyrazol-4-yl] pyrazolo[1,5-a]pyridine-3-carbonitrile]	2 nM
CCSc1cc(-c2cnn([C@H]3CCCNC3)c2)cn2ncc(C#N)c12 [Example 51, 4-ethylsulfanyl-6-[1-[(3S)-3-piperidyl]pyrazol-4-yl]pyrazolo[1,5-a]pyridine-3-carbonitrile]	1 nM
CC(C)Sc1cc(-c2cnn([C@H]3CCCNC3)c2)cn2ncc(C#N)c12 [Example 52, 4-isopropylsulfanyl-6-[1-[(3S)-3-piperidyl]pyrazol-4-yl]pyrazolo[1,5-a]pyridine-3-carbonitrile]	2 nM
COCCSc1cc(-c2cnn([C@H]3CCCNC3)c2)cn2ncc(C#N)c12 [Example 53, 4-(2-methoxyethylsulfanyl)-6-[1-[(3S)-3-piperidyl]pyrazol-4-yl]pyrazolo[1,5-a]pyridine-3-carbonitrile]	3 nM
N#Cc1cnn2cc(-c3cnn([C@H]4CCCNC4)c3)cc(SC3CCC3)c12 [Example 54, 4-cyclobutylsulfanyl-6-[1-[(3S)-3-piperidyl]pyrazol-4-yl]pyrazolo[1,5-a]pyridine-3-carbonitrile]	1 nM
N#Cc1cnn2cc(-c3cnn([C@H]4CCCNC4)c3)cc(Sc3cnccn3)c12 [Example 55, 6-[1-[(3S)-3-piperidyl]pyrazol-4-yl]-4-pyrazin-2-ylsulfanyl-pyrazolo[1,5-a]pyridine-3-carbonitrile]	13 nM
Cc1c(-c2cc(Sc3ccccn3)c3c(C#N)cnn3c2)cnn1[C@H]1CCCNC1 [Example 56, 6-[5-methyl-1-[(3S)-3-piperidyl]pyrazol-4-yl]-4-(2-pyridylsulfanyl)pyrazolo[1,5-a]pyridine-3-carbonitrile]	6 nM
Cn1ncc2cc(Sc3cc(-c4cnn([C@H]5CCCNC5)c4)cn4ncc(C#N)c34)ccc21 [Example 57, 4-(1-methylindazol-5-yl)sulfanyl-6-[1-[(3S)-3-piperidyl]pyrazol-4-yl]pyrazolo[1,5-a]pyridine-3-carbonitrile]	13 nM
N#Cc1cnn2cc(-c3cnn([C@H]4CCCNC4)c3)cc(SC3CCOC3)c12 (stereo partly drawn) [Example 58, 6-[1-[(3S)-3-piperidyl]pyrazol-4-yl]-4-tetrahydrofuran-3-ylsulfanyl-pyrazolo[1,5-a]pyridine-3-carbonitrile]	4 nM
Cc1ccnc(Sc2cc(-c3cnn([C@H]4CCCNC4)c3)cn3ncc(C#N)c23)c1 [Example 59, 4-[(4-methyl-2-pyridyl)sulfanyl]-6-[1-[(3S)-3-piperidyl]pyrazol-4-yl]pyrazolo[1,5-a]pyridine-3-carbonitrile]	11 nM
N#Cc1cnn2cc(-c3cnn(C4CCNCC4)c3)cc(Sc3ncccn3)c12 [Example 60, 6-(1-(piperidin-4-yl)-1H-pyrazol-4-yl)-4-(pyrimidin-2-ylthio)pyrazolo[1,5-a]pyridine-3-carbonitrile, HCl]	7 nM
Cn1nccc1Sc1cc(-c2cnn(C3CCNCC3)c2)cn2ncc(C#N)c12 [Example 61, 4-((1-methyl-1H-pyrazol-5-yl)thio)-6-(1-(piperidin-4-yl)-1H-pyrazol-4-yl)pyrazolo[1,5-a]pyridine-3-carbonitrile, HCl]	9 nM
N#Cc1ccccc1Sc1cc(-c2cnn(C3CCNCC3)c2)cn2ncc(C#N)c12 [Example 62, 4-((2-cyanophenyl)thio)-6-(1-(piperidin-4-yl)-1H-pyrazol-4-yl)pyrazolo[1,5-a]pyridine-3-carbonitrile]	0.3 nM
N#Cc1cnn2cc(-c3cnn([C@H]4CCCNC4)c3)cc(Sc3ncccc3F)c12 [Example 63, 4-[(3-fluoro-2-pyridyl)sulfanyl]-6-[1-[(3S)-3-piperidyl]pyrazol-4-yl]pyrazolo[1,5-a]pyridine-3-carbonitrile]	1 nM
N#Cc1cnn2cc(-c3cnn([C@H]4CCCNC4)c3)cc(Sc3cc(C(F)(F)F)ccn3)c12 [Example 64, 6-[1-[(3S)-3-piperidyl]pyrazol-4-y1]-4-[[4-(trifluoromethyl)-2-pyridyl]sulfanyl]pyrazolo[1,5-a]pyridine-3-carbonitrile]	61 nM
Cc1cccnc1Sc1cc(-c2cnn(C3CCNCC3)c2)cn2ncc(C#N)c12 [Example 65, 4-((3-methylpyridin-2-yl)thio)-6-(1-(piperidin-4-yl)-1H-pyrazol-4-yl)pyrazolo[1,5-a]pyridine-3-carbonitrile, HCl]	4 nM
Cc1cc(Sc2cc(-c3cnn(C4CCNCC4)c3)cn3ncc(C#N)c23)n(C)n1 [Example 66, 4-((1,3-dimethyl-1H-pyrazol-5-yl)thio)-6-(1-(piperidin-4-yl)-1H-pyrazol-4-yl)pyrazolo[1,5-a]pyridine-3-carbonitrile, HCl]	12 nM

Structure (SMILES)	IC50
N#Cc1cnn2cc(-c3cnn([C@H]4CCCNC4)c3)cc(Sc3ncccc3C(F)(F)F)c12 [Example 67]	4 nM
N#Cc1cnn2cc(-c3cnn([C@H]4CCCNC4)c3)cc(Sc3cccc(C(F)(F)F)n3)c12 [Example 68, 6-[1-[(3S)-3-piperidyl]pyrazol-4-yl]-4-[[6-(trifluoromethyl)-2-pyridyl]sulfanyl] pyrazolo[1,5-a]pyridine-3-carbonitrile]	68 nM
N#Cc1cccc(Sc2cc(-c3cnn(C4CCNCC4)c3)cn3ncc(C#N)c23)c1 [Example 69, 4-((3-cyanophenyl)thio)-6-(1-(piperidin-4-yl)-1H-pyrazol-4-yl)pyrazolo[1,5-a]pyridine-3-carbonitrile]	8 nM
Cc1ccc(F)c(Sc2cc(-c3cnn(C4CCNCC4)c3)cn3ncc(C#N)c23)n1 [Example 70, 4-((3-fluoro-6-methylpyridin-2-yl)thio)-6-(1-(piperidin-4-yl)-1H-pyrazol-4-yl)pyrazolo[1,5-a]pyridine-3-carbonitrile, HCl]	3 nM
Cc1ccnc(Sc2cc(-c3cnn(C4CCNCC4)c3)cn3ncc(C#N)c23)c1C [Example 72, 4-((3,4-dimethylpyridin-2-yl)thio)-6-(1-(piperidin-4-yl)-1H-pyrazol-4-yl)pyrazolo[1,5-a]pyridine-3-carbonitrile]	3 nM
N#Cc1cnn2cc(-c3cnn([C@H]4CCNC4)c3)cc(Sc3ccccn3)c12 [Example 73, (S)-4-(pyridin-2-ylthio)-6-(1-(pyrrolidin-3-yl)-1H-pyrazol-4-yl)pyrazolo[1,5-a]pyridine-3-carbonitrile, HCl]	4 nM
N#Cc1cnn2cc(-c3cnn([C@H]4CCCNC4)c3)cc(Sc3ccccc3CO)c12 [Example 74, 4-[2-(hydroxymethyl)phenyl]sulfa-nyl-6-[1-[(3S)-3-piperidyl]pyrazol-4-yl]pyrazolo[1,5-a]pyridine-3-carbonitrile]	6 nM
N#Cc1cnn2cc(-c3cnn([C@H]4CCCNC4)c3)cc(Sc3cccc(C(F)F)n3)c12 [Example 75, 4-[[6-(difluoromethyl)-2-pyridyl]sulfanyl]-6-[1-[(3S)-3-piperidyl]pyrazol-4-yl]pyrazolo[1,5-a]pyridine-3-carbonitrile]	22 nM
N#Cc1cnn2cc(-c3cnn([C@H]4CCCNC4)c3)cc(Sc3ccncn3)c12 [Example 76, 6-[1-[(3S)-3-piperidyl]pyrazol-4-yl]-4-pyrimidin-4-ylsulfanyl-pyrazolo[1,5-a]pyridine-3-carbonitrile]	237 nM
N#Cc1cccc(Sc2cc(-c3cnn([C@H]4CCCNC4)c3)cn3ncc(C#N)c23)n1 [Example 77, 4-[(6-cyano-2-pyridyl)sulfanyl]-6-[1-[(3S)-3-piperidyl]pyrazol-4-yl]pyrazolo[1,5-a]pyridine-3-carbonitrile]	99 nM
Cc1cc(F)cc(Sc2cc(-c3cnn([C@H]4CCCNC4)c3)cn3ncc(C#N)c23)n1 [Example 78, 4-[(4-fluoro-6-methyl-2-pyridyl)sulfanyl]-6-[1-[(3S)-3-piperidyl]pyrazol-4-yl]pyrazolo[1,5-a]pyridine-3-carbonitrile]	27 nM
CC(C)OC[C@@H](C)Sc1cc(-c2cnn([C@H]3CCCNC3)c2)cn2ncc(C#N)c12 [Example 79, 4-[(1R)-2-isopropoxy-1-methyl-ethyl]sulfanyl-6-[1-[(3S)-3-piperidyl]pyrazol-4-yl]pyrazolo[1,5-a]pyridine-3-carbonitrile]	2 nM
Cc1ccncc1Sc1cc(-c2cnn([C@H]3CCCNC3)c2)cn2ncc(C#N)c12 [Example 80, 4-[(4-methyl-3-pyridyl)sulfanyl]-6-[1-[(3S)-3-piperidyl]pyrazol-4-yl]pyrazolo[1,5-a]pyridine-3-carbonitrile]	8 nM
Cc1ncccc1Sc1cc(-c2cnn([C@H]3CCCNC3)c2)cn2ncc(C#N)c12 [Example 81, 4-[(2-methyl-3-pyridyl)sulfanyl]-6-[1-[(3S)-3-piperidyl]pyrazol-4-yl]pyrazolo[1,5-a]pyridine-3-carbonitrile]	31 nM
N#Cc1cnn2cc(-c3cnn([C@H]4CCCNC4)c3)cc(Sc3cccnn3)c12 [Example 82, 6-[1-[(3S)-3-piperidyl]pyrazol-4-yl]-4-pyridazin-3-ylsulfanyl-pyrazolo[1,5-a]pyridine-3-carbonitrile]	32 nM
N#Cc1cnn2cc(-c3cnn([C@H]4CCCNC4)c3)cc(Sc3cncnc3)c12 [Example 83, 6-[1-[(3S)-3-piperidyl]pyrazol-4-yl]-4-pyrimidin-5-ylsulfanyl-pyrazolo[1,5-a] pyridine-3-carbonitrile]	19 nM
Cc1ccnc(C)c1Sc1cc(-c2cnn([C@H]3CCCNC3)c2)cn2ncc(C#N)c12 [Example 84, 4-[(2,4-dimethyl-3-pyridyl)sulfanyl]-6-[1-[(3S)-3-piperidyl]pyrazol-4-yl]pyrazolo[1,5-a]pyridine-3-carbonitrile]	11 nM

Same assay, conditions: Enz FGFR2 (nM), FGFR2 wild type enzyme assay

Structure (SMILES)	IC50
Cc1c(-c2cc(Sc3ccc(F)cc3C#N)c3c(C#N)cnn3c2)cnn1C1CCC(C)(C)NC1 (stereo in doubt) [Example 529, 4-(2-cyano-4-fluoro-phenyl)sulfanyl-6-[1-[(3R)-6,6-dimethyl-3-piperidyl]-5-methyl-pyrazol-4-yl]pyrazolo[1,5-a]pyridine-3-carbonitrile]	1 nM
